Patent US9409866B2, “Pyridine-2-amides useful as CB2 agonists” (Hoffmann-La Roche Inc., priority 2012, dated 2016)
Read-outs that look alike come from different tables or passages of the source.

Key:
[1] = target: human CB2 receptors (Homo sapiens (Human), UniProt P34972); experiment: functional cAMP assay, CHO cells expressing human CB2; format: cell-based
Outline: (§1)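 CHO-hCB1/hCB2 cells, KRB + 1 mM IBMX preincubation 30 min 30 °C; cpd 30 min 30 °C; lysis + TR-FRET cAMP detection, 2 h RT; cAMP from std curve; EC50.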

[2] = target: human CB1 receptors (Homo sapiens (Human), UniProt P21554); experiment: functional cAMP assay, CHO cells expressing human CB1; format: cell-based
human CB1 receptors, sequence (P21554 whole entry): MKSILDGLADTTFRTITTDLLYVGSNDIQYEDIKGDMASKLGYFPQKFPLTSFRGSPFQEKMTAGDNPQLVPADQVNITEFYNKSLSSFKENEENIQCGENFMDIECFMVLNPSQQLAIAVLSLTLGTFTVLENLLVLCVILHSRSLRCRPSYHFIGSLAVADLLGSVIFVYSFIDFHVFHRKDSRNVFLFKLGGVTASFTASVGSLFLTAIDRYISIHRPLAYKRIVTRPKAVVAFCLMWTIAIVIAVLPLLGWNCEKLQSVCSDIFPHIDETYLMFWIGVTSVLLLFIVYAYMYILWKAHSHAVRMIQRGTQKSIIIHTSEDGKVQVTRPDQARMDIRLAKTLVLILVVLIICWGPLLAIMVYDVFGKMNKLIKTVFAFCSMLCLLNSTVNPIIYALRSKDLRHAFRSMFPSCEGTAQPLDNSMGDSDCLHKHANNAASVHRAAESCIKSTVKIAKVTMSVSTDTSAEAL
Outline: as §1

[3] = functional cAMP assay, CHO cells expressing human CB1; read-out: Human CB1 EC50
[4] = Human CB1 EC50 (uM), functional cAMP assay, CHO cells expressing human CB1
[5] = read-out: Human CB1 EC50; functional cAMP assay, CHO cells expressing human CB1

human CB2 receptors, sequence (P34972 whole entry): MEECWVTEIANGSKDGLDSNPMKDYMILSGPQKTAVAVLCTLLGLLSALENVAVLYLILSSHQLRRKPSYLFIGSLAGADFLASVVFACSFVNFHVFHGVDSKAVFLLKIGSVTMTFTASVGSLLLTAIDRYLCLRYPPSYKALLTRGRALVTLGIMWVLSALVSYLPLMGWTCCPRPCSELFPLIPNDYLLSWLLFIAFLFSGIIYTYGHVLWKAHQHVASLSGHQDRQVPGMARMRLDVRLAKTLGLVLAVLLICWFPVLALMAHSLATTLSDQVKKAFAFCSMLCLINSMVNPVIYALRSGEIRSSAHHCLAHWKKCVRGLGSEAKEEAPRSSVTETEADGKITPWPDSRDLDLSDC

Structure (SMILES)	EC50 ([1]; read-out: Human CB2 EC50)	EC50 [2, 3]	EC50 ([1]; Human CB2 EC50 (uM))	EC50 [2, 4]	EC50 [2, 5]
CCC(CC)(CO)NC(=O)c1cc(OCC2CC2)c(Cl)cn1 [Example 21, 5-Chloro-4-cyclopropylmethoxy-pyridine-2-carboxylic acid (1-ethyl-1-hydroxymethyl-propyl)-amide]	0.0404 µM	> 10 µM			
Cc1nc(C(C)(NC(=O)c2cc(O[C@H](C)C(F)(F)F)c(C3CC3)cn2)C2CC2)no1 (single isomer, unassigned; epimer b) [Example 73]	0.00025 µM	0.017 µM			
Cc1nc(C(C)(CS(C)(=O)=O)NC(=O)c2cc(OCC(F)(F)F)c(N3CC(F)(F)C3)cn2)no1 (centres unmarked) [Example 95, 5-(3,3-Difluoro-azetidin-1-yl)-4-(2,2,2-trifluoro-ethoxy)-pyridine-2-carboxylic acid [2-methanesulfonyl-1-methyl-1-(5-methyl-[1,2,4]oxadiazol-3-yl)-ethyl]-amide]	0.0554 µM	> 10 µM			
CN(C)C(=O)C(NC(=O)c1cc(OCC(F)(F)F)c(C2CC2)cn1)C(C)(C)C (centres unmarked) [Example 195, 5-cyclopropyl-N-[1-(dimethylamino)-3,3-dimethyl-1-oxobutan-2-yl]-4-(2,2,2-trifluoroethoxy)pyridine-2-carboxamide]	0.0034 µM	> 10 µM			
Cc1nc(C(C)(NC(=O)c2cc(OCC(F)(F)F)c(C3(F)COC3)cn2)C2CC2)no1 (centres unmarked) [Example 139, N-[1-cyclopropyl-1-(5-methyl-1,2,4-oxadiazol-3-yl)ethyl]-5-(3-fluorooxetan-3-yl)-4-(2,2,2-trifluoroethoxy)pyridine-2-carboxamide]	0.0006 µM	> 10 µM			
Cc1nc(C(C)(CS(C)(=O)=O)NC(=O)c2cc(O[C@@H](C)C(F)(F)F)c(C3(F)CCC3)cn2)no1 (stereo partly drawn) [Example 138, 5-(1-fluorocyclobutyl)-N-[2-(5-methyl-1,2,4-oxadiazol-3-yl)-1-methylsulfonylpropan-2-yl]-4-[(2S)-1,1,1-trifluoropropan-2-yl]oxypyridine-2-carboxamide]	0.0217 µM	> 10 µM			
Cc1nnc(C(NC(=O)c2cc(OCC(F)(F)F)c(C3CC3)cn2)C(C)(C)C)o1 (centres unmarked) [Example 174, 5-cyclopropyl-N-[2,2-dimethyl-1-(5-methyl-1,3,4-oxadiazol-2-yl)propyl]-4-(2,2,2-trifluoroethoxy)pyridine-2-carboxamide]	0.0218 µM	> 10 µM			
Cn1nnnc1C(C)(CC1CC1)NC(=O)c1cc(OCC(F)(F)F)c(C2CC2)cn1 (single isomer, unassigned) [Example 228, 5-cyclopropyl-N-[1-cyclopropyl-2-(1-methyltetrazol-5-yl)propan-2-yl]-4-(2,2,2-trifluoroethoxy)pyridine-2-carboxamide]			0.0346 µM	> 10 µM	
CC(C)[C@](C)(CO)NC(=O)c1cc(OCC2CC2)c(Cl)cn1 [Example 14, 5-Chloro-4-cyclopropylmethoxy-pyridine-2-carboxylic acid ((R)-1-hydroxymethyl-1,2-dimethyl-propyl)-amide]	0.0128 µM	6.98 µM			
Cc1nc(C(C)(CC2CC2)NC(=O)c2cc(O[C@@H](C)C(F)(F)F)c(C3CCC3)cn2)no1 (stereo partly drawn) [Example 110, 5-Cyclobutyl-4-((S)-2,2,2-trifluoro-1-methyl-ethoxy)-pyridine-2-carboxylic acid [2-cyclopropyl-1-methyl-1-(5-methyl-[1,2,4]oxadiazol-3-yl)-ethyl]-amide]	0.0008 µM	0.31 µM			
CC(CC(N)=O)(NC(=O)c1cc(OCC(F)F)c(C2CC2)cn1)C1CC1 (single isomer, unassigned) [Example 272, N-[4-amino-2-cyclopropyl-4-oxobutan-2-yl]-5-cyclopropyl-4-(2,2-difluoroethoxy)pyridine-2-carboxamide]			0.0495 µM	> 10 µM	
Cc1nc([C@](C)(CC2CC2)NC(=O)c2cc(OCC(F)(F)F)c(Cl)cn2)no1 (single isomer, unassigned) [Example 94, 5-Chloro-4-(2,2,2-trifluoro-ethoxy)-pyridine-2-carboxylic acid [2-cyclopropyl-1-methyl-1-(5-methyl-[1,2,4]oxadiazol-3-yl)-ethyl]-amide]			0.0747 µM	> 10 µM	
C[C@H](Oc1cc(C(=O)NC(C(N)=O)C(C)(C)C)ncc1C1CC1)C(F)(F)F (stereo partly drawn) [Example 240, N-(1-amino-3,3-dimethyl-1-oxobutan-2-yl)-5-cyclopropyl-4-[(2S)-1,1,1-trifluoropropan-2-yl]oxypyridine-2-carboxamide]	0.0552 µM	> 10 µM			
Cc1nnc(C(C)(CC2CC2)NC(=O)c2cc(OCC(F)(F)F)c(C3CC3)cn2)o1 (single isomer, unassigned) [Example 185, 5-cyclopropyl-N-[1-cyclopropyl-2-(5-methyl-1,3,4-oxadiazol-2-yl)propan-2-yl]-4-(2,2,2-trifluoroethoxy)pyridine-2-carboxamide]			0.0302 µM		> 10 µM
CNC(=O)C(NC(=O)c1cc(O[C@@H](C)C(F)(F)F)c(C2CC2)cn1)C(C)(C)O (stereo partly drawn) [Example 253, 5-cyclopropyl-N-[3-hydroxy-3-methyl-1-(methylamino)-1-oxobutan-2-yl]-4-[(2S)-1,1,1-trifluoropropan-2-yl]oxypyridine-2-carboxamide]	0.0019 µM	> 10 µM			
Cc1nc(C(C)(CS(C)(=O)=O)NC(=O)c2cc(O[C@@H](C)C(F)(F)F)c(C3CCC3)cn2)no1 (stereo partly drawn) [Example 111, 5-Cyclobutyl-4-((S)-2,2,2-trifluoro-1-methyl-ethoxy)-pyridine-2-carboxylic acid [2-methanesulfonyl-1-methyl-1-(5-methyl-[1,2,4]oxadiazol-3-yl)-ethyl]-amide]	0.003 µM	0.43 µM			
Cc1nc(C(C)(NC(=O)c2cc(OCC(F)(F)F)c(C3CC3)cn2)C2CC2)no1 (centres unmarked) [Example 49, 5-Cyclopropyl-4-(2,2,2-trifluoro-ethoxy)-pyridine-2-carboxylic acid [1-cyclopropyl-1-(5-methyl-[1,2,4]oxadiazol-3-yl)-ethyl]-amide]	0.0017 µM	> 10 µM			
NC(=O)[C@H](CC1CC1)NC(=O)c1cc(OCC2CC2)c(Cl)cn1 [Example 4, 5-Chloro-4-cyclopropylmethoxy-pyridine-2-carboxylic acid ((S)-1-carbamoyl-2-cyclopropyl-ethyl)-amide]	0.115 µM	> 10 µM			
CC(C)(C)C(NC(=O)c1cc(OCC(F)(F)F)c(N2CC(F)(F)C2)cn1)C(N)=O (single isomer, unassigned) [Example 263, N-[1-amino-3,3-dimethyl-1-oxobutan-2-yl]-5-(3,3-difluoroazetidin-1-yl)-4-(2,2,2-trifluoroethoxy)pyridine-2-carboxamide]			0.0338 µM		> 10 µM
Cc1nnc(C(C)(CC2COC2)NC(=O)c2cc(OCC(F)(F)F)c(C3CC3)cn2)o1 (centres unmarked) [Example 191, 5-cyclopropyl-N-[2-(5-methyl-1,3,4-oxadiazol-2-yl)-1-(oxetan-3-yl)propan-2-yl]-4-(2,2,2-trifluoroethoxy)pyridine-2-carboxamide]	0.707 µM	> 10 µM			
CCC(CC)(CO)NC(=O)c1cc(OCC(F)(F)F)c(C2CC2)cn1 [Example 54, 5-Cyclopropyl-4-(2,2,2-trifluoro-ethoxy)-pyridine-2-carboxylic acid (1-ethyl-1-hydroxymethyl-propyl)-amide]	0.0185 µM	> 10 µM			
Cc1nc([C@@](C)(CC2CC2)NC(=O)c2cc(OCC(F)(F)F)c(Cl)cn2)no1 (single isomer, unassigned) [Example 93, 5-Chloro-4-(2,2,2-trifluoro-ethoxy)-pyridine-2-carboxylic acid [2-cyclopropyl-1-methyl-1-(5-methyl-[1,2,4]oxadiazol-3-yl)-ethyl]-amide]			0.0651 µM	> 10 µM	
NC(=O)CC1(NC(=O)c2cc(OCC3CC3)c(N3CC(F)(F)C3)cn2)CS(=O)(=O)C1 [Example 267, N-[3-(2-amino-2-oxoethyl)-1,1-dioxothietan-3-yl]-4-(cyclopropylmethoxy)-5-(3,3-difluoroazetidin-1-yl)pyridine-2-carboxamide]	0.0105 µM	> 10 µM			
CC(C)(O)CNC(=O)c1cc(OCC(F)(F)F)c(C2CC2)cn1 [Example 60, 5-Cyclopropyl-4-(2,2,2-trifluoro-ethoxy)-pyridine-2-carboxylic acid (2-hydroxy-2-methyl-propyl)-amide]	0.481 µM	> 10 µM			
CCN(C(=O)c1cc(OCC(F)(F)F)c(C2CC2)cn1)C(C)(C)C [Example 107, 5-Cyclopropyl-4-(2,2,2-trifluoro-ethoxy)-pyridine-2-carboxylic acid tert-butyl-ethyl-amide]	0.0822 µM	> 10 µM			
O=C(NC1(CO)CCCC1)c1cc(OCC2CC2)c(Cl)cn1 [Example 6, 5-Chloro-4-cyclopropylmethoxy-pyridine-2-carboxylic acid (1-hydroxymethyl-cyclopentyl)-amide]	0.0524 µM	> 10 µM			
O=C(N[C@H](c1ccccn1)C(F)(F)F)c1cc(OCC2CC2)c(Cl)cn1 [Example 16, (+)-5-Chloro-4-cyclopropylmethoxy-pyridine-2-carboxylic acid (2,2,2-trifluoro-1-pyridin-2-yl-ethyl)-amide]	0.0031 µM	0.815 µM			
Cc1nc([C@](C)(CC2CC2)NC(=O)c2cc(OCC(F)(F)F)c(N3CC(F)(F)C3)cn2)no1 (single isomer, unassigned) [Example 92, 5-(3,3-Difluoro-azetidin-1-yl)-4-(2,2,2-trifluoro-ethoxy)-pyridine-2-carboxylic acid [2-cyclopropyl-1-methyl-1-(5-methyl-[1,2,4]oxadiazol-3-yl)-ethyl]-amide]			0.0214 µM	> 10 µM	
